Assays:
[1] = biological target: T1, E1 (His6-UBA1) (Mus musculus, UniProt Q02053); test: E1~Ub loading assay; type: biochemical; details: E1 2 μM pre-treated with compound 100 μM for 30 min at RT; reducing and non-reducing conditions
T1 construct: made in house
T1 sequence (Q02053 1-1058): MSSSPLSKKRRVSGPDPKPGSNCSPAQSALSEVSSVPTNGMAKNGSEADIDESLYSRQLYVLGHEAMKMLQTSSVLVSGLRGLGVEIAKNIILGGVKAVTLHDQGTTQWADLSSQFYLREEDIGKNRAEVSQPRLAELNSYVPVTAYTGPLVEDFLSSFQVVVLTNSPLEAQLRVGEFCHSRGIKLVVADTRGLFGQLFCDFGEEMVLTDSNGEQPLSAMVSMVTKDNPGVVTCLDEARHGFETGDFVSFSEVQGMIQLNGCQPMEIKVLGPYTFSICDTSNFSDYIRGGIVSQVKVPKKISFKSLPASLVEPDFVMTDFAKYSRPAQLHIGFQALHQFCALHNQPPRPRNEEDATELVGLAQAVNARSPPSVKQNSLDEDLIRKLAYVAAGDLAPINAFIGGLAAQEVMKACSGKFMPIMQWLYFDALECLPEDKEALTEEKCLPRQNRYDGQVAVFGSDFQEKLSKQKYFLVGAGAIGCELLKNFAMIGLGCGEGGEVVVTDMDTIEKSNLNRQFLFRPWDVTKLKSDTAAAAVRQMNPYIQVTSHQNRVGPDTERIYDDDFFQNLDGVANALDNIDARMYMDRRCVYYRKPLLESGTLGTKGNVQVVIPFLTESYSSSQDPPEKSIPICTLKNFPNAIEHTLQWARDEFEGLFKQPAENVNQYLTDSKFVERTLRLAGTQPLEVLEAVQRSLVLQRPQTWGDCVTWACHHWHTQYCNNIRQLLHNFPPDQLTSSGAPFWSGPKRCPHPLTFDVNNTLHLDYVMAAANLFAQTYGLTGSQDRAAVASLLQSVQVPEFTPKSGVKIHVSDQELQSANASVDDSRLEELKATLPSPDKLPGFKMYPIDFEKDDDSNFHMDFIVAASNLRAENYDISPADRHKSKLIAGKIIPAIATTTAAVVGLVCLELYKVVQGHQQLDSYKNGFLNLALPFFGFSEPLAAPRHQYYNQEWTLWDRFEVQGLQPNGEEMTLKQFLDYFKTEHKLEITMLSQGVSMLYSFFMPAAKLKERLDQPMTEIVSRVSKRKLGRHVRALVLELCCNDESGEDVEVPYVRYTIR
Protocol: 2 Supplementary Figure 6 Further biochemical characterisation of purified
4 A) Schematic of auto-ubiquitination assay, with pre-labelled full-length TRIM25. Created in
5 BioRender. McPhie, K. (2025) https://BioRender.com/q86g447; B) Auto-ubiquitination time
7 µM) was incubated with compounds (50 µM) or DMSO (1%) for 16 h at 4 °C, before addition
8 of E1 (0.2 µM), UBCH5B (2 µM), Ub (50 µM), UbATTO (1 µM). The assay was initiated by the
9 addition of ATP, and performed for 60 min at 30 °C. Time point 0 was taken before the addition
10 of ATP. Samples were analysed by SDS-PAGE, with Coomassie staining and scanning at 700
11 nm wavelength (for ATTO emission).
12 of His10-TRIM25 (which has not been ubiquitinated) where % His10-TRIM25 (relative to time =
13 0 min) is plotted vs reaction time. Data are presented as n = 1; D) E1~Ub loading assay with
E1 (2 µM) was incubated with
15 compounds (100 µM) or DMSO (1%) for 30 min at RT, before addition of UBCH5B (2 µM) and
16 Ub (10 µM). The assay was initiated by the addition of ATP (1 mM), and performed for 5 min
17 at 30 °C. After 5 min, samples were treated with either loading dye, or loading dye with DTT,
18 and analysed by SDS-PAGE, with Coomassie staining; E) Cellular target identification for 11
19 (50 µM, left, and 10 µM, right, 4 h incubation at 37 °C in live THP-1 cells) using an […]

[2] = biological target: T2, TRIM25 (peptide FTYC^498SQVLGLHC^506YK) (Homo sapiens, UniProt Q14258); test: IA-DTB competitive chemoproteomics in live THP-1 cells; type: cell-based, 9606; details: 4 h at 37 °C, compound tested at 50 μM and 10 μM, significant if FC ≤ 0.25, p-value ≤ 0.01
T2 construct: endogenous in cells; host or cells: THP-1
T2 sequence (Q14258 whole entry): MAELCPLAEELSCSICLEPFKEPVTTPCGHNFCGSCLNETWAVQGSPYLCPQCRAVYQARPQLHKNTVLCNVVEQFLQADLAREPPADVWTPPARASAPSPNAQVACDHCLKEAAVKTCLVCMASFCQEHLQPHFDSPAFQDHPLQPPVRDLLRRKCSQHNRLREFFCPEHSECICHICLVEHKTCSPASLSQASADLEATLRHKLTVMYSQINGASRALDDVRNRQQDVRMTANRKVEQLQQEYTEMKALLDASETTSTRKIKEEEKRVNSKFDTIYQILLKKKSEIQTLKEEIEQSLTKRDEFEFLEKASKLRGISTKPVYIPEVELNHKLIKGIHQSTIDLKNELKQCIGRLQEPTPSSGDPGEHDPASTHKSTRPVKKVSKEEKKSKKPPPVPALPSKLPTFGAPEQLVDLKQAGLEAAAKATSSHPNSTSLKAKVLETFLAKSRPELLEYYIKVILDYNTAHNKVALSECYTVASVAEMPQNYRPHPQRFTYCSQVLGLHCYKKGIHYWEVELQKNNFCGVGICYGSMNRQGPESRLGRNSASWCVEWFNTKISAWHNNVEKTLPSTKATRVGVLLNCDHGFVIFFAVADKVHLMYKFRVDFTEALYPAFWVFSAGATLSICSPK

[3] = tested on: live THP-1 cells; test: IA-DTB competitive chemoproteomics in live THP-1 cells, proteome-wide off-targets; type: cell-based, 9606; details: compound 50 μM, 4 h at 37 °C

SMILES | E1~Ub loading [1] | TRIM25 engagement in cells [2] | number of other protein targets competed [3]
Cc1cc(C(=O)N2CCCN(C(=O)CCl)CC2)ccc1-c1ccccc1 [Compound 10] | not inhibited | engaged TRIM25 in cells at the PRYSPRY domain at 50 μM | 50
CC1Cc2ccccc2N1C(=O)C1CCCN(C(=O)CCl)C1 (centres unmarked) [Compound 11] | not inhibited | not observed to engage TRIM25 | –
